“Also recorded” adds a separate entry of the source. Where two headings read alike, the source gives them in different places.
Legend:
[1] = test system: serum retinol-binding protein (RBP); assay: Binding to serum retinol-binding protein (RBP): inhibition of [3H]retinol binding; details: % of that of retinol
[2] = test system: TPA-induced ornithine decarboxylase (ODC); assay: Inhibition of TPA-induced ornithine decarboxylase (ODC) in mouse skin; type: in vivo
Text: Earlier, several alkyl, alkenyl, or alkynyl retinyl ethers had been assayed for inhibition of TPA-induced ornithine decarboxylase (ODC) in mouse skin and for the suppression of DMBA-initiated and TPA-promoted mouse-skin papillomas (Shealy et al., 1997). In comparison with control groups, these retinyl ethers were ineffective. Only a few representatives of the benzyl ethers were selected for tests in these assays. […] Because of these and the earlier results (Shealy et al., 1997), testing of retinyl benzyl ethers in the ODC and papilloma assays was discontinued.

[3] = test system: MNU-induced mammary cancer; assay: Short-term (90-day) assay against MNU-induced mammary cancer in rats (Expts. 2 and 3); type: in vivo, rat (female Sprague-Dawley); details: 90 days
Experimental: (§1) Retinoid diet mixtures were stored at 4° C. […] The animals were palpated for mammary tumors 2×/week. […] Also, five rats/group had complete necropsies performed.
(§2) The 2,5-dimethoxybenzyl (3b) and 4-methoxybenzyl (3e) ethers were tested in the same way in a 90-day study. […] The 2,5-dimethybenzyl (3c) and the 2,3-dimethoxybenzyl (3h) ethers, together with RTMBE for comparison, were likewise assayed according to the same methodology. Prior to the beginning of this study, specimens of the retinoid-diet mixtures were placed under the conditions that were employed during the storage and feeding of RTMBE, 3c, and 3h. The specimens were extracted with butanol, and the extracts were analyzed by HPLC. […] Testing of 3c and 3h was discontinued, but the RTMBE study was continued until the duration of the study was 180 days (Table 6). The results were similar to those of Experiment 1 (Table 3). The averages of the number of tumors per rat were reduced by 32-35%; in addition, the averages of the tumor weights per rat was 56-70% lower than the average tumor burden of the control group.
and was continued until the studies of 3b, 3c, 3e, and 3h were terminated
90 days after administration of MNU. The RTMBE experiment was continued
until 180 days after MNU administration (Table VI).
kilogram of Teklad diet.

[4] = test system: MNU-induced mammary cancer; assay: 180-day study of RTMBE for suppression of MNU-induced mammary carcinogenesis (Expt. 3); type: in vivo, rat (female Sprague-Dawley)
Experimental: as §1, §2
^a Each group of female Sprague-Dawley rats (10/group) received one
until Day 180 after injection of MNU.
and was continued until the study was terminated at 180 days after MNU.

[5] = Analysis of feed samples for stability of retinyl ethers; type: physicochemical
Experimental: as §2
^a The values in each column are % recoveries of the retinyl ether from
mixtures of the ether with feed samples and are based on the actual
amounts of the ether that were added.
^b The samples that were analyzed were mixtures of vehicle, retinoid,
and feed (prepared as described by Shealy et al., 1997).
^c Food cups were placed in animal cages within the room that housed
the rats; therefore, temperature (22° C.) and lighting were
identical to those in use during the in vivo tests.

[6] = Toxicity observations in rats receiving retinoids in feed; type: in vivo, rat (Sprague-Dawley); details: administered in feed, listed as RTMBE
Experimental: as §1

[7] = Tissue concentrations resulting from gavage of rats with RTMBE; type: in vivo, rat (female Sprague-Dawley); details: for concentration at 168 h / concentration at 336 h: rat, po, 14 mg/day by gavage; for concentration at 168 h: 7 days; for concentration at 336 h: 14 days
Experimental: To plasma samples (50-200 μl), ten volumes of acetonitrile were added, and the preparations were centrifuged. The supernatants were evaporated to dryness under nitrogen and reconstituted in the mobile phase (see below). Tissues were homogenized in four volumes of water at 0° C., and each homogenate was extracted with acetonitrile (50 mL/g tissue). From this point, handling of plasma and tissue samples was identical. Portions (25-50 μl) of the reconstituted samples were analyzed by reverse-phase HPLC. The chromatographic system was composed of a Beckman solvent delivery module 110B, analogue interface module 406, programable detector module 166, and autosampler 507. The column was a Hypersil ODS, 5-μ, 250×4.6 mm. Elution was accomplished with a solvent of methanol:0.2%acetic acid (93.5:6.5, v/v) with the final solution containing 0.02% triethylamine. The flow rate was 1 mL/min, with detection at 340 nm.
The concentrations of RTMBE in the serum, mammary gland, and liver of rats, as well as the levels of RP in the liver, were determined after administration of RTMBE by gavage during 14 days (Table 9). […] In order to investigate further the accumulation of retinyl benzyl ethers in mammary tissue, RTMBE, the 2,5-dimethoxybenzyl ether (3b), and the 4-methoxybenzyl (3e) ether were administered intravenously (via a tail vein) at 5 mg/kg to female Sprague-Dawley rats (3 with each retinoid). Acetonitrile extracts of plasma and mammary tissue were analyzed by HPLC. The ratios of mammary tissue-to-plasma concentrations of RTMBE, 3b, and 3e were 183±77, 38±20, and 41±14, respectively, after 24 hr.
^a The dose of 14 mg/day by gavage is equivalent to a feeding dose of 2

[8] = Mammary tissue-to-plasma concentration after intravenous dosing; type: in vivo, rat (female Sprague-Dawley); details: rat, 5 mg/kg i.v., after 24 hr, read-out: ratio of mammary tissue-to-plasma concentrations
[9] = test system: MNU-induced mammary cancer; details: for Adenocarcinomas, % of Control Group A / Adenocarcinomas, Avg. No. Per Rat / reduction of average number of tumors per rat: 160 days
Experimental: Briefly, diets were prepared by mixing each retinoid with Wayne meal or Teklad (4%) mash diet. For each kg of diet, the retinoid was dissolved in 12 g ethanol, 19 g trioctanoin, 0.05 mL Tenox 20, and 0.05 mL d,1-alpha tocopherol prior to incorporation into the feed using a Patterson-Kelly blender. Retinoid diet mixtures were stored at 4° C. Portions of each retinoid-diet mixture were analyzed for the added retinoid to ensure homogeneity. Female Sprague-Dawley rats received an i.v. injection of MNU (45 mg/kg body weight) at 50 days of age. Diet supplementation with retinoids was initiated three days after MNU. A group of rats receiving retinyl acetate (1 mmol/kg of diet) served as the positive control. The animals were palpated for mammary tumors 2×/week. At termination of the study, mammary tumors were processed for histological classification. Also, five rats/group had complete necropsies performed. The tissues were examined histologically for pathological lesions as additional toxicological evaluation. Extracts of the liver and mammary gland (5 rats/group) were analyzed by HPLC for retinyl palmitate and/or for the dosed retinoid. Statistical analyses of cancer incidence and latency were determined using logrank analysis, while differences in cancer multiplicity were determined employing the Armitage test.
In this assay, described previously (Grubbs et al., 1995; Shealy el al., 1997), a retinoid dissolved in a solution (vehicle) consisting of ethanol and trioctanoin plus small amounts of Tenox 20 and α-tocopherol was mixed with feed, and the mixture was fed to rats after intravenous injection of MNU.
^a Female Sprague-Dawley rats (10/group) received one i.v. injection of
MNU (45 mg/kg of body weight) at 50 days of age. Diet supplementation with
retinoids was initiated at 52 days of age and was continued until the
study was terminated 160 days after administration of MNU.
^b Treatment with retinoids is stated in millimoles of retinoid per
kilogram of diet (Wayne meal).

[10] = Shealy et al., 1997; cited from earlier work
[11] = mammary gland, read-out: RTMBE, Mammary Gland

COc1cc(COC/C=C(C)/C=C/C=C(C)/C=C/C2=C(C)CCCC2(C)C)cc(OC)c1OC [Compound 2, Retinyl 3,4,5-Trimethoxybenzyl Ether]
inhibition of [3H] retinol-binding (RBP), relative to that of retinol [1]: 70%
activity in ODC assay [2]: not active in the ODC assay
reduction of the number of tumors per rat ([3]; at 1 mmol/kg): 64%
Tumors, % of Control Gp. ([3]; Expt. 3, 0.5 mmol/kg diet): 78%
Tumors, Avg. No. per Rat ([3]; Expt. 3, 0.5 mmol/kg diet): 1.5
Tumors, % of Control Gp. ([3]; Expt. 3, 1 mmol/kg diet): 36%
Tumors, Avg. No. per Rat ([3]; Expt. 3, 1 mmol/kg diet): 0.7
Tumors, % of Control Gp. ([3]; Expt. 3, 2 mmol/kg diet): 36%
Tumors, Avg. No. per Rat ([3]; Expt. 3, 2 mmol/kg diet): 0.7
Adenocarcinomas, % of Control Gp. ([4]; 0.5 mmol/kg diet, 180 days): 65%
Adenocarcinomas, Avg. No. Per Rat ([4]; 0.5 mmol/kg diet, 180 days): 4.07
Final Body Wt. ([4]; 0.5 mmol/kg diet, 180 days): 259 g
Tumor Wt. Per Rat ([4]; 0.5 mmol/kg diet, 180 days): 7.0 g
Adenocarcinomas, % of Control Gp. ([4]; 1 mmol/kg diet, 180 days): 67%
Adenocarcinomas, Avg. No. Per Rat ([4]; 1 mmol/kg diet, 180 days): 4.20
Final Body Wt. ([4]; 1 mmol/kg diet, 180 days): 252 g
Tumor Wt. Per Rat ([4]; 1 mmol/kg diet, 180 days): 7.57 g
Adenocarcinomas, % of Control Gp. ([4]; 2 mmol/kg diet, 180 days): 68%
Adenocarcinomas, Avg. No. Per Rat ([4]; 2 mmol/kg diet, 180 days): 4.27
Final Body Wt. ([4]; 2 mmol/kg diet, 180 days): 246 g
Tumor Wt. Per Rat ([4]; 2 mmol/kg diet, 180 days): 5.14 g
average tumor weight per rat lower than control group ([4]; 180 days, 0.5-2 mmol/kg diet): 56-70%
reduction of average number of tumors per rat ([4]; 180 days, 0.5-2 mmol/kg diet): 32-35%
suppression of MNU-induced mammary cancer ([4]; three long-term experiments of 160-180 days): suppressed MNU-induced mammary cancer
% recovery of retinyl ether from feed ([5]; After 1 week of 4° C., 10080 min): 101%
% recovery of retinyl ether from feed ([5]; After 1 day in food cup (22° C.)): 97%
% recovery of retinyl ether from feed ([5]; After 2 days in food cup (22° C.)): 104%
% recovery of retinyl ether from feed ([5]; After 3 days in food cup (22° C.)): 97.5%
% recovery of retinyl ether from feed ([5]; Immediately After Mixing): 99.8%
% recovery of retinyl ether ([5]; Vehicle + Retinoid (only)): 97%
stability in diet mixtures ([5]; conditions of storage and feeding in animal rooms): essentially unchanged
toxicity in MNU-mammary cancer studies [6]: Overt toxicity was not evident; also recorded: not toxic in the mammary carcinogenesis studies
liver levels of RP compared with vehicle group ([7]; after 14 days, gavage): only slightly higher than the levels of the vehicle group
change of serum concentration of RTMBE ([7]; between 7 and 14 days, gavage): did not change significantly
increase of concentration in mammary gland ([7]; between 7 and 14 days, gavage): more than two-fold
increase of liver level of RTMBE ([7]; between 7 and 14 days, gavage): 22%
concentration at 168 h ([7]; liver, read-out: RTMBE, Liver): 78900 ± 7500 ng/g
concentration at 336 h ([7]; liver, read-out: RTMBE, Liver): 96100 ± 11100 ng/g
concentration at 168 h [7, 11]: 83300 ± 7300 ng/g
concentration at 336 h [7, 11]: 178000 ± 11100 ng/g
concentration at 168 h ([7]; serum, read-out: RTMBE, Serum): 16300 ± 2500 ng/mL
concentration at 336 h ([7]; serum, read-out: RTMBE, Serum): 17300 ± 2200 ng/mL
Kp at 24 h [8]: 183 ± 77
Adenocarcinomas, % of Control Group A ([9]; 0.5 mmol/kg diet): 100%
Adenocarcinomas, Avg. No. Per Rat ([9]; 0.5 mmol/kg diet): 6.5
Adenocarcinomas, % of Control Group A ([9]; 1 mmol/kg diet): 55%
Adenocarcinomas, Avg. No. Per Rat ([9]; 1 mmol/kg diet): 3.6
reduction of average number of tumors per rat ([9]; 1 mmol/kg feed): 46%
Adenocarcinomas, % of Control Group A ([9]; 2 mmol/kg diet): 54%
Adenocarcinomas, Avg. No. Per Rat ([9]; 2 mmol/kg diet): 3.5
reduction of average number of tumors per rat ([9]; 2 mmol/kg feed): 45%
prevention / suppression of mammary cancer, general statement ([9]; animal model / in vivo initial study): suppress mammary cancer in vivo
recovery from the feed of rats [10]: recoverable from the feed of rats

— patent US6281250A, “Retinyl ethers, derivatives and analogues and inhibition of breast carcinogenesis” (Southern Research Institute, priority 1999, dated 2001)
